# Results published in patent publication US10722496B2, “2-iminobiotin for use in the treatment of brain cell injury” (Neurophyxia B.V., priority 2015, dated 2020).
# Tests used:
# stat5 = assay: Western blotting, stat5 phosphorylation; assay type: cell-based, human; conditions: 30 ng/ml 2-IB
# Protocol: In vitro hypoxia was induced in the cell cultures by using our recently described system with minor modifications (Huang et al., 2013b; Weber et al., 2015; Zitta et al., 2010). Enzyme stock solutions (100×) of catalase and glucose oxidase (both from Sigma-Aldrich) were prepared in cell culture medium (DMEM/F12, 1% FCS; final concentration: 120 U/ml and 2 U/ml respectively; Sigma-Aldrich) leading to a decrease of partial pressure of oxygen (pO2) below 10 mmHg within 5 minutes. Hypoxic conditions were confirmed by using a tissue oxygen pressure monitor (LICOX® CMP Oxygen Catheter; Integra, Plainsboro, USA). After 7 hours of hypoxia, the cells were washed twice with PBS (PAA) and fresh normoxic medium supplemented with solvent (citrate buffer 1%) or 2-IB (10, 30, 50, 100 and 300 ng/mL) was added to the cells. […]
# Protein extraction was performed using RIPA buffer containing 150 mM sodium chloride, 1% NP-40, 1% sodium deoxycholate, 0.1% sodium dodecyl sulfate (SDS) and 50 mM Tris-HCl buffer (pH 7.6; all from Sigma-Aldrich) or alternatively M-PER buffer (Mammalian Protein Extraction Reagent; Pierce, Ill., USA). Protein concentrations were determined with Roti®-Quant assays (Carl Roth) and samples were stored at −20° C. until use. […] Images were taken and densitometrically analyzed with the software ImageJ (v1.41o, NIH).
# 4VO rat model = assay: Morris water maze after four-vessel occlusion (4VO); assay type: in vivo; conditions: for memory test, time spent in the right quadrant on day 32: 12 and 24 hours, mean±SD
# Protocol: The rats were anesthetized using ketamine (90 mg/kg) and xylazine sodium ([…]), as described earlier (Meilin et al., 2014). The first cervical vertebrata was exposed and the vertebral arteries were permanently occluded by electrocauterization. The common carotid arteries were isolated through a ventral midline neck incision and lifted using a 4.0 silk suture ligature, placed around them.
# Twenty-four hours post vertebral arterial occlusion, the animals were reanesthetized using isoflurane. The common carotid arteries were exposed and occluded using microaneurysm clips for 15 minutes. After removing the clips reperfusion occurred. The skin of the incision at the neck was sutured using 4-0 silk suture. During the operation animal's core temperature was monitored using a rectal probe (Model 400; YSI Inc., Yellow Springs, Ohio, USA) connected to a thermometer (Model 8402-00; Cole-Parmer Instrument Co. Ltd, London, UK). The ischemic insult was initiated when a rectal temperature of 37-38° C. was achieved, and this temperature was maintained throughout the procedure using a heating mattress.
# During the acclimatization period rats were randomly assigned to experimental groups. The animals were subjected to 4VO per cage or one rat per cage was subjected to HI. Rats received either vehicle (normal saline at pH 3.8-4.0) or 2-IB (1.1 mg/kg, 3.3 mg/kg, 10 mg/kg and 30 mg/kg dissolved in 5 ml/kg normal saline at pH 3.8-4.0). Each dosing group was kept in separate cages to avoid cross-contamination by consuming stools during the study period. The experimental groups were as follows.
# Tests were performed during day-time. Rats were introduced to a standardized 1.2 m-diameter pool filled with water for 120 seconds or until they located a platform hidden 1 cm below the water surface. Several visual cues were provided within the room in which the pool was located to allow rats to spatially navigate the water maze. […] Rats were allowed two attempts to find the hidden platform, and this learning test was performed over a period of 4 days (days 28-31). The memory test was performed on the fifth day (day 32), at which time the hidden platform was removed, and rats were placed in the pool for a single 60-second trial. The amount of time that each rat spent in the quadrant, where the hidden platform had previously been located, was recorded by an observer who was blinded to the experimental groups.
# The Morris water maze was used to evaluate how well the rats remembered the location of the hidden platform, and whether they had learned to navigate towards the appropriate quadrant. The time that the rat spent in the right quadrant was measured. This was considered the primary outcome.
# During the learning test the time to find a hidden platform in the water was calculated. Also the area under the curve (AUC) of the subsequent learning tests was calculated. These parameters were considered secondary outcomes.
structure (smiles),measurement,setting,value
"N=C1N[C@H]2[C@H](CS[C@H]2CCCCC(=O)O)N1 [2-IB, 2-iminobiotin]",phosphorylation of stat5,stat5,did not influence
same,AUC of the learning test from day 28 until 31,4VO rat model; 1.1 mg/kg/dose s.c.,276±85
same,"memory test, time spent in the right quadrant on day 32",4VO rat model; 1.1 mg/kg/dose s.c. upon reperfusion,10.7 ± 4.4 s
same,AUC of the learning test from day 28 until 31,4VO rat model; 3.3 mg/kg/dose s.c.,266±64
same,"memory test, time spent in the right quadrant on day 32",4VO rat model; 3.3 mg/kg/dose s.c. upon reperfusion,12.7 ± 6.7 s
same,AUC of the learning test from day 28 until 31,4VO rat model; 10 mg/kg/dose s.c.,297±79
same,"memory test, time spent in the right quadrant on day 32",4VO rat model; 10 mg/kg/dose s.c. upon reperfusion,12.0 ± 7.3 s
same,AUC of the learning test from day 28 until 31,4VO rat model; 30 mg/kg/dose s.c.,287±89
same,"memory test, time spent in the right quadrant on day 32",4VO rat model; 30 mg/kg/dose s.c. upon reperfusion,12.5 ± 6.0 s
same,"learning test day 28 to day 31, time to find the hidden platform vs vehicle-treated rats","4VO rat model; 1.1 (p<0.05), 3.3 (p<0.01) and 30 mg/kg/dose (p<0.05), Dunnett's post hoc",significant difference
